The text below walks through data of patent publication US6166290A, “Glutathione-S-conjugate transport in plants” (The Trustees of the University of Pennsylvania, priority 1997, dated 2000).

Experiment [1] deals with T1, YCF1 (vacuolar membrane vesicles purified from DTY165 cells) (Saccharomyces cerevisiae, UniProt P39109).
T1 construct: endogenous in cells; host or cells: S. cerevisiae DTY165 (wild type YCF1), vacuolar membrane vesicles
In words: biochemical. The class given is biochemical. The following applies: read-out: Ki(DNP-GS) for inhibition of Cd.GS2 uptake. The procedure, abridged:
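Vacuolar vesicles from wild-type (DTY165) or ycf1Δ (DTY167) yeast, washed free of DTT/EGTA into glycerol/Tris-Mes pH 8.0. MgATP-energized, uncoupler-insensitive uptake of 109Cd2+, GSH or purified radiolabeled Cd·GSn complexes measured at 25°C. Medium: 3 mM ATP/MgSO4, ATP-regenerating system, 5 μM gramicidin-D, Tris-Mes pH 8.0; washes contained 100 μM CdSO4.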

In experiment [2] the target is T2, AtMRP2 (Arabidopsis thaliana, UniProt Q42093).
T2 construct: S. cerevisiae DTY168 (ycf1 null) vacuolar-enriched membrane vesicles
The experiment can be described thus: AtMRP2-dependent uptake by membrane vesicles from pYES3-AtMRP2-transformed DTY168 cells. The class given is biochemical. In outline:
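Vacuolar membrane-enriched vesicles from DTY168 yeast expressing AtMRP2 took up 61.3 μM [3H]DNP-GS for 10 min; glucose (200 mM) plus hexokinase (50 units/ml) was then added to deplete ATP, while controls received nothing. Uptake was stopped with ice-cold sorbitol/Tris-Mes pH 8.0 and filtered, with filter radioactivity counted by scintillation. Nonenergized uptake was measured without ATP.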

Experiment [3] relates to vacuolar GS-X pump (vacuolar membrane vesicles, V. radiata hypocotyls). The experiment can be described thus: GS-conjugate uptake by vacuolar membrane vesicles from etiolated hypocotyls of V. radiata. The class given is biochemical, Vigna radiata.
Experiment [4] deals with vacuolar GS-X pump (vacuolar membrane vesicles, Z. mays roots). The experiment can be described thus: GS-conjugate uptake by vacuolar membrane vesicles from roots of Z. mays. The class given is biochemical, Zea mays.
Experiment [5] concerns vacuolar GS-X pump (vacuolar membrane vesicles, V. radiata hypocotyls). To be noted: cited from earlier work.
The test system of experiment [6] is vacuolar GS-X pump (vacuolar membrane vesicles, Z. mays roots). The following applies: Zea mays root; cited from earlier work.
The subject of experiment [7] is vacuolar membrane vesicles purified from Arabidopsis leaf / root. The following applies: cited from earlier work.
The test system of experiment [8] is endogenous GS-X pump of plant vacuolar membranes. The following applies: read-out: Km for transport by endogenous plant vacuolar GS-X pump; cited from earlier work.
Setting [9] is: read-out: I50 for uptake of IAA-GS.

Each structure is given as a SMILES string. Read-outs that look alike come from different tables or passages of the source.

Broadly, the Ki is the dissociation constant of the complex between target and ligand, obtained from inhibition or displacement. A word on the Km: it is the substrate concentration at which the rate is half of its maximum.

T2 sequence (Q42093 whole entry): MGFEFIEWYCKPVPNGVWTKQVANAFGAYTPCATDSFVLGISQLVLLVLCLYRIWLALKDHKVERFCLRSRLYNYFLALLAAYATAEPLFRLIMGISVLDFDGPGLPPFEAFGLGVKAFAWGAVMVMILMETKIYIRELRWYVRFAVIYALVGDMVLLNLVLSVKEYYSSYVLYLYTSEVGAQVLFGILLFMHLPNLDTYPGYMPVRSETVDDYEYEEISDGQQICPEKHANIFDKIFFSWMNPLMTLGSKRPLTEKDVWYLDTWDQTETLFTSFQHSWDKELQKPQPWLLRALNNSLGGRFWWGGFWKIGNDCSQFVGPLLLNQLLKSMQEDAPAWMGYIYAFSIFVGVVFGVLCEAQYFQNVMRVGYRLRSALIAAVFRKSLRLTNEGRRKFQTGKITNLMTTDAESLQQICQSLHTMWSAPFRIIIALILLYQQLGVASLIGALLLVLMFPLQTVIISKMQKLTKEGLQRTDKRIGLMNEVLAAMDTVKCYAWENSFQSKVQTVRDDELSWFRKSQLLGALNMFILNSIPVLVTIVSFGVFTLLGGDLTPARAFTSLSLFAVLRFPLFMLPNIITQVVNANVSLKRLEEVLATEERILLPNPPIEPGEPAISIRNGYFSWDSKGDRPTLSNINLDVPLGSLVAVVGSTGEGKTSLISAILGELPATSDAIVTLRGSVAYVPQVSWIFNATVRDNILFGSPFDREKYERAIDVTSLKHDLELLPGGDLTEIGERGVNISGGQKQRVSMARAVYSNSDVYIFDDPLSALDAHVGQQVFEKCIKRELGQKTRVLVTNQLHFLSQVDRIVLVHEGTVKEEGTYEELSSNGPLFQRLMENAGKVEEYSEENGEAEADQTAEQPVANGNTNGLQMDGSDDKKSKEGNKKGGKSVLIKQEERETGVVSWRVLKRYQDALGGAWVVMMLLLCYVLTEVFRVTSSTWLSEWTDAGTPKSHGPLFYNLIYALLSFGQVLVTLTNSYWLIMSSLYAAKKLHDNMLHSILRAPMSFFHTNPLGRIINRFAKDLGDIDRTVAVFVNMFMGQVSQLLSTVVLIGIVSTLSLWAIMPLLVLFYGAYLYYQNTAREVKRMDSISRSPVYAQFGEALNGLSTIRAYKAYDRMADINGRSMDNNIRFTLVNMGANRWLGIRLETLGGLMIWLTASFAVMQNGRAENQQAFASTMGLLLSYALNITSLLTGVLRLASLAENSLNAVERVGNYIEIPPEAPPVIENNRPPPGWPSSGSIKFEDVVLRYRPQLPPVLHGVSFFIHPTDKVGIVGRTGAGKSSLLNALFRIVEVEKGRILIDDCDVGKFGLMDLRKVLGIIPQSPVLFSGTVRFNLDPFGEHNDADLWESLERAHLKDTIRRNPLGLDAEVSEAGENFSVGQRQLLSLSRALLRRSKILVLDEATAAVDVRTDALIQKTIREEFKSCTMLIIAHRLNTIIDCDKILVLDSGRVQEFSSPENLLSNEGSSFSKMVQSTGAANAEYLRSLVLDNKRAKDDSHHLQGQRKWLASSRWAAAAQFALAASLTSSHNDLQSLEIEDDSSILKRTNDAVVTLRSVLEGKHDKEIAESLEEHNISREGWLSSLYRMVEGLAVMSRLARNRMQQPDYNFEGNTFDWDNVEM
T1 sequence (P39109 whole entry): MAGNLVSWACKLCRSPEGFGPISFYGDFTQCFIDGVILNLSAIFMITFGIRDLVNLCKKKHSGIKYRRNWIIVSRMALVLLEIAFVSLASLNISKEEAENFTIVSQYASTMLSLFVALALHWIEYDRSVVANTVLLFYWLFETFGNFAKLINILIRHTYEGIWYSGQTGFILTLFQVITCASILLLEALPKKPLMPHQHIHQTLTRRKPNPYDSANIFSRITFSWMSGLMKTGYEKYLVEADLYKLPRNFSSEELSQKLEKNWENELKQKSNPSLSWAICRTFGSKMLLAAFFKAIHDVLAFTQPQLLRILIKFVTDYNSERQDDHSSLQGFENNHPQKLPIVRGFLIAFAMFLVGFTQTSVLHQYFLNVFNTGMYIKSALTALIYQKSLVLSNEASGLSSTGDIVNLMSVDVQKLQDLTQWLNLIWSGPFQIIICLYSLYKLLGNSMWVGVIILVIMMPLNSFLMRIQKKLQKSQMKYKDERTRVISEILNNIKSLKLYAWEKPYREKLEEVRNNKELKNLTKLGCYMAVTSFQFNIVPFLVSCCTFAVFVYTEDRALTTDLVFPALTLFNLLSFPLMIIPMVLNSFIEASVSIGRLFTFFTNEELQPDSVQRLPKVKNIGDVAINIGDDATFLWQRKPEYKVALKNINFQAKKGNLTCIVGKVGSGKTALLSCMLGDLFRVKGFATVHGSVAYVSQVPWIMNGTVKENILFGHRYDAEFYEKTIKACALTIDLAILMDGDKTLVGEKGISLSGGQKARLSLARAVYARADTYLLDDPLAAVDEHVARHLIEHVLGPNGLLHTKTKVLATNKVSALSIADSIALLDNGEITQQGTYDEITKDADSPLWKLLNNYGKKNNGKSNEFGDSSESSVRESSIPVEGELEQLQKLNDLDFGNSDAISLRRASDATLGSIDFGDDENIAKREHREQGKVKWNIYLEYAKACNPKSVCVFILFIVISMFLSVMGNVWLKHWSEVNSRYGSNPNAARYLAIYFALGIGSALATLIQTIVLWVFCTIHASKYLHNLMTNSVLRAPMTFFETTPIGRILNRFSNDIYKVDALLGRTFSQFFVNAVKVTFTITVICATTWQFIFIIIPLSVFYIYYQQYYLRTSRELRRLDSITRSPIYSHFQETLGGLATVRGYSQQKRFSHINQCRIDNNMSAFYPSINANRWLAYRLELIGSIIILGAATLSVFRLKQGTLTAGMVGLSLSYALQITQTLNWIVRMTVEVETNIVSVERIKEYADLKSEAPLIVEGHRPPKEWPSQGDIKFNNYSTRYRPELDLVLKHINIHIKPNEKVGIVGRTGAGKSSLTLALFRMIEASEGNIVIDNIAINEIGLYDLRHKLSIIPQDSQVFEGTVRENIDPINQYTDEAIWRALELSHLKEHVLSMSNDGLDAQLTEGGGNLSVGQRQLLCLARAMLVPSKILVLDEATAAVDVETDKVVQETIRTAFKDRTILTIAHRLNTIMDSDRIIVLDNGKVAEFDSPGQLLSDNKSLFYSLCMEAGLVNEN

In the case of `N[C@@H](CCC(=O)N[C@@H](CSc1ccc([N+](=O)[O-])cc1[N+](=O)[O-])C(=O)NCC(=O)O)C(=O)O` [DNP-GS, S-(2,4-dinitrophenyl)glutathione], the Ki in experiment [1] was 11.3 ± 2.1 µM. Further, the “Vmax for AtMRP2-dependent [3H]DNP-GS uptake in the presence of Bn-NCC-1” value in experiment [2] (15 μM Bn-NCC-1) is on record as 18.3±1.6 nmol/mg/10/min. Further, in experiment [2] (MgATP-dependent, uncoupler-insensitive), the “Vmax for AtMRP2-dependent uptake” value is recorded as 16.3±3.1 nmol/mg/10 min. The IC50 in experiment [3] (V. radiata, read-out: I50 for uptake of C3G-GS) worked out at 104 µM; in experiment [3] (setting [9]), 124 µM; in experiment [4] (read-out: I50 for uptake of ABA-GS) it was 232 µM; in experiment [4] (read-out: I50 for uptake of C3G-GS) it was 112 µM; in experiment [4] (setting [9]), 110 µM. For the same compound, the “inhibition of MgATP-dependent [3H]medicarpin-GS uptake” value in experiment [3] (vanadate 10 μM, DNP-GS 100 μM, gramicidin D) was “more than 85%”. In addition, the “rate of MgATP-dependent, uncoupler-insensitive DNP-GS uptake” value was 5.8 nmol/mg/20 minutes in experiment [5] (Vigna radiata hypocotyl), 2.1 nmol/mg/20 minutes in experiment [6], 2.3 nmol/mg/20 minutes in experiment [7] (Arabidopsis leaf) and 3.8 nmol/mg/20 minutes in experiment [7] (Arabidopsis root). Also, the Km estimated previously in this system in experiment [5] was 80 µM. Further, the “Vmax of GS-X pump” value in experiment [5] (comparison value for DNP-GS) was 12 nmol/mg/20 minutes. For the same compound, in experiment [8], the Km was 81.3 ± 41.8 µM.
